Assay results reported in publication PMC6511942, “Exploitation of Antibiotic Resistance as a Novel Drug Target: Development of a β-Lactamase-Activated Antibacterial Prodrug” (Journal of Medicinal Chemistry, 2019).

Experiments:
DH5α expressing CTX-M-1 = assay: Whole-cell NMR β-lactamase hydrolysis assay, DH5α + CTX-M-1; type: cell-based, E. coli; settings: DH5α + CTX-M-1, 100 μM, 60 min
DH5α cells –βla = assay: Whole-cell NMR β-lactamase hydrolysis assay, DH5α without β-lactamase; type: cell-based, E. coli; settings: DH5α – CTX-M-1, 100 μM, 60 min
recombinant DNA gyrase = molecular target: T1, recombinant DNA gyrase (Escherichia coli, UniProt P0AES4+P0AES6); assay: Recombinant DNA gyrase supercoiling assay ± CTX-M-15; type: biochemical, E. coli; settings: ± CTX-M-15
T1 construct: purchased Inspiralis
T1 sequence (P0AES4 whole entry, one chain of several): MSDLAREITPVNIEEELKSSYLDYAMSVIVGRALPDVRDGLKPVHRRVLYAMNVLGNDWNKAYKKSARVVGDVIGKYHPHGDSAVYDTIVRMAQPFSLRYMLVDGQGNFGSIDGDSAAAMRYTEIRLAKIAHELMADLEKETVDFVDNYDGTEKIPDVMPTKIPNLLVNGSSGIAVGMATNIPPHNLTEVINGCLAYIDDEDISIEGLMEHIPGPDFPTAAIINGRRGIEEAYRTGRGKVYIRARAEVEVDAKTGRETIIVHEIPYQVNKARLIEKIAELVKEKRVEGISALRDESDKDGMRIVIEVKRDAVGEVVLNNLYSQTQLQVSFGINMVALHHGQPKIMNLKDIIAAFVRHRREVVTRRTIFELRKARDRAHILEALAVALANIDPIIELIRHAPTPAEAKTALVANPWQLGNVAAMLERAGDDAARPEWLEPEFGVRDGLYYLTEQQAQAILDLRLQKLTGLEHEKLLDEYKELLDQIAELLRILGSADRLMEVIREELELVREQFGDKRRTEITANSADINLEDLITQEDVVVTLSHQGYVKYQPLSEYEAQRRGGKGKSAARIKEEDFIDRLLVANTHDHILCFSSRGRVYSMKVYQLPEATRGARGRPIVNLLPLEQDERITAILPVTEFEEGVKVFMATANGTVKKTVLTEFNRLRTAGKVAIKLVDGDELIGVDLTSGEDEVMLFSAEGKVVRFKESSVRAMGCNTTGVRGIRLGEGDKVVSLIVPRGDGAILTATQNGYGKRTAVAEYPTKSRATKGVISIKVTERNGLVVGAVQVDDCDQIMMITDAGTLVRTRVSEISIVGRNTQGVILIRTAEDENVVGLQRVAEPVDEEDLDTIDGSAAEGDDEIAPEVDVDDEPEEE

CFT073 + pSU18 + CTX-M-1 = assay: Whole-cell NMR β-lactamase hydrolysis assay, CFT073 + CTX-M-1; type: cell-based, E. coli; settings: 100 μM compound at 1 h by whole-cell NMR assay
E. coli strain DH5α = assay: MIC, broth microdilution, E. coli DH5α; type: cell-based; settings: for MIC value DH5α: E. coli DH5α without β-lactamase
Procedure: Analysis of the literature identified the amide functionality at C-7 of the cephem ring as central to PBP and β-lactamase activity,[44]−[51] and therefore structural changes at this position provided the initial focus of investigation. By use of cephalothin 7 (Table 1) as the starting point, analogues were prepared to explore bioisosteric replacement,[52],[53] functionalities present in early generation β-lactam antibiotics, and to probe steric and electronic tolerance.[54],[55] All compounds were synthesized according to the previously reported methods (Figure S1 in Supporting Information).[55],[56] Antibacterial activity was assessed by determining the minimal concentration required to inhibit bacterial growth, known as the minimal inhibitory concentration (MIC), against the E. coli strain DH5α ± expression of the ESBL TEM-116.[57] The susceptibility to β-lactamase mediated hydrolysis was assessed by determining the physiological efficiency (kcat/Km) of hydrolysis by recombinant AmpC protein.[3],[58],[59] […]
pNDM pSU18 containing the native coding sequence for NDM-1 under the Jiménez-control of the native promoter Castellanos et […]
pKPC pSU18 containing the native coding sequence for KPC-3 under the Brem et al., control of the native promoter 20166
Transformation of E. coli with plasmids
Plasmids were introduced via heat shock into chemically competent DH5a and via electroporation into E. coli CFT073 following published protocols.8 […]
The bacterial strains and plasmids used in this study are detailed in Supplementary Table 1.
E. coli was grown in Mueller-Hinton Broth (MHB) or Lennox Broth (LB) at 37 °C, with shaking (180 r.p.m.) overnight (16-18 h). […]
MIC assays were performed in 96-well thermo scientific Nuclon Delta Surface plates and MICs were determined in accordance with the broth microdilution protocol.7 E. coli grown to stationary-phase in MHB or LB were adjusted to OD600 nm of 0.05 in MHB and […]
determined as the lowest concentration of antibiotic that inhibited visible bacterial growth.
OD595 measurements were recorded on a BioRad 1Mark Microplate Reader. […]
subsequently incubated at 37 °C with shaking (180 r.p.m.) and bacterial viability determined […]
Each compound was incubated for 1 hour at room temperature in 100 mM NaPO4 (pH 7) ± 0.5 M NaOH. The wavelength at which the difference between un-hydrolysed and hydrolysed compound was the greatest was selected (typically 263 nm) and a compound concentration vs. absorbance standard curve was generated. […] Recombinant Amp-C in assay buffer was added immediately before incubatio n in the microplate reader at 37 °C. UV absorbance was measured every 20 s for 1 h on a BMG LABTECH SPECTROstarNano. Kinetic parameters were determined by half -life analysis. […]

CFT073 + pSU18 (pEMP) = assay: microbe, parasite or virus in culture; type: cell-based, E. coli; settings: Escherichia coli, read-out: MIC value CFT073 + pSU18, empty plasmid, no β-lactamase
DH5α + TEM-116 = assay: Whole-cell NMR β-lactamase hydrolysis assay, DH5α + TEM-116; type: cell-based, E. coli; settings: DH5α + TEM-116, 100 μM, 90 min
recombinant AmpC protein = molecular target: T2, recombinant AmpC protein (Escherichia coli, UniProt P00811); type: biochemical
T2 construct: purchased Abcam ab104926
T2 sequence (P00811 20-377): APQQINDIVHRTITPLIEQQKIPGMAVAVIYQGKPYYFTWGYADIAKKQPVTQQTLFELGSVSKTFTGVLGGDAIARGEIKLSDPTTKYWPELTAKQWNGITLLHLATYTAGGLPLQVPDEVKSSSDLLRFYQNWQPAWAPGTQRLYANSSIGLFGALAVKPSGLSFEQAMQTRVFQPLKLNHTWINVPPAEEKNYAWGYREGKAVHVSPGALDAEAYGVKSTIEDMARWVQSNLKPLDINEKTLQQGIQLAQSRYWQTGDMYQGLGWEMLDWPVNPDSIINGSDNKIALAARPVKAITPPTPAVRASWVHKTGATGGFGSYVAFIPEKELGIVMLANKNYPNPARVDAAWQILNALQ

SMILES: CC(=O)OCC1=C(C(=O)O)N2C(=O)[C@@H](NC(=O)Cc3cccs3)[C@H]2SC1 [Ceph 7, cephalothin, reference compound]
- % hydrolysis by NMR +βla (DH5α expressing CTX-M-1; listed as cepaholothin 7): complete hydrolysis
- % hydrolysis by NMR –βla (DH5α cells –βla): 0%

SMILES: O=C(O)c1cn(C2CC2)c2cc(N3CCNCC3)c(F)cc2c1=O [Ciprofloxacin 31, ciprofloxacin, reference compound]
- effect of CTX-M-15 on DNA gyrase inhibitory activity (recombinant DNA gyrase): not affected by CTX-M-15

SMILES: CC(=O)OCC1=C(C(=O)O)N2C(=O)[C@@H](NC(=O)[C@H](C)c3ccccc3)[C@H]2SC1 [compound 10, (6R,7R)-3-(Acetoxymethyl)-8-oxo-7-((R)-2-phenylpropanamido)-5-thia-1-azabicyclo[4.2.0]oct-2-ene-2-carboxylic Acid]
- % hydrolysis in CFT073 + pSU18 + CTX-M-1 (CFT073 + pSU18 + CTX-M-1): 0%

SMILES: CC(=O)OCC1=C(C(=O)O)N2C(=O)[C@@H](NC(=O)Cc3ccccc3)[C@H]2SC1 [compound 11, (6R,7R)-3-(Acetoxymethyl)-8-oxo-7-(2-phenylacetamido)-5-thia-1-azabicyclo[4.2.0]oct-2-ene-2-carboxylic Acid]
- increase in MIC value against E. coli DH5α compared to cephalothin (E. coli strain DH5α): 4 fold

SMILES: CC(=O)OCC1=C(C(=O)O)N2C(=O)[C@@H](NC(=O)Cc3ccc(C)cc3)[C@H]2SC1 [compound 12, (6R,7R)-3-(Acetoxymethyl)-8-oxo-7-(2-(p-tolyl)acetamido)-5-thia-1-azabicyclo[4.2.0]oct-2-ene-2-carboxylic Acid]
- MIC (CFT073 + pSU18 (pEMP)): 100 µM

SMILES: CC(=O)OCC1=C(C(=O)O)N2C(=O)[C@@H](NC(=O)Cc3ccc(F)cc3)[C@H]2SC1 [compound 13, (6R,7R)-3-(Acetoxymethyl)-7-(2-(4-fluorophenyl)acetamido)-8-oxo-5-thia-1-azabicyclo[4.2.0]oct-2-ene-2-carboxylic Acid]
- MIC (CFT073 + pSU18 (pEMP)): 100 µM

SMILES: CC(=O)OCC1=C(C(=O)O)N2C(=O)[C@@H](NC(=O)Cc3ccc(Cl)cc3)[C@H]2SC1 [compound 14, (6R,7R)-3-(Acetoxymethyl)-7-(2-(4-chlorophenyl)acetamido)-8-oxo-5-thia-1-azabicyclo[4.2.0]oct-2-ene-2-carboxylic Acid]
- MIC (CFT073 + pSU18 (pEMP)): 100 µM

SMILES: CC(=O)OCC1=C(C(=O)O)N2C(=O)[C@@H](NC(=O)Cc3ccc(Br)cc3)[C@H]2SC1 [compound 15, (6R,7R)-3-(Acetoxymethyl)-7-(2-(4-bromophenyl)acetamido)-8-oxo-5-thia-1-azabicyclo[4.2.0]oct-2-ene-2-carboxylic Acid]
- MIC (CFT073 + pSU18 (pEMP)): 100 µM

SMILES: CC(=O)OCC1=C(C(=O)O)N2C(=O)[C@@H](NC(=O)Cc3ccc(-c4ccccc4)cc3)[C@H]2SC1 [compound 16, (6R,7R)-7-(2-([1,1′-Biphenyl]-4-yl)acetamido)-3-(acetoxymethyl)-8-oxo-5-thia-1-azabicyclo[4.2.0]oct-2-ene-2-carboxylic Acid]
- % hydrolysis by NMR +βla (DH5α expressing CTX-M-1): 100%
- MIC value DH5α (E. coli strain DH5α): no measurable MIC values
- % hydrolysis by NMR –βla (DH5α cells –βla): 0%

SMILES: CC(=O)OCC1=C(C(=O)O)N2C(=O)[C@@H](NC(=O)Cc3ccc(Oc4ccccc4)cc3)[C@H]2SC1 [compound 17, (6R,7R)-3-(Acetoxymethyl)-8-oxo-7-(2-(4-phenoxyphenyl)acetamido)-5-thia-1-azabicyclo[4.2.0]oct-2-ene-2-carboxylic Acid]
- MIC value DH5α (E. coli strain DH5α): no measurable MIC values
- % hydrolysis by NMR +βla (DH5α + TEM-116): 54%
- % hydrolysis by NMR –βla (DH5α cells –βla): 0%

SMILES: CC(=O)OCC1=C(C(=O)O)N2C(=O)[C@@H](NC(=O)Cc3cccc(C)c3)[C@H]2SC1 [compound 18, (6R,7R)-3-(acetoxymethyl)-8-oxo-7-(2-(m-tolyl)acetamido)-5-thia-1-azabicyclo[4.2.0]oct-2-ene-2-carboxylic Acid]
- increase in kcat/Km compared to cephalothin (recombinant AmpC protein): 3 fold
- increase in kcat/Km compared to para-methyl 12 (recombinant AmpC protein): 5 fold

SMILES: CC(=O)OCC1=C(C(=O)O)N2C(=O)[C@@H](NC(=O)Cc3cccc(Oc4ccccc4)c3)[C@H]2SC1 [compound 19, (6R,7R)-3-(Acetoxymethyl)-8-oxo-7-(2-(3-phenoxyphenyl)acetamido)-5-thia-1-azabicyclo[4.2.0]oct-2-ene-2-carboxylic Acid]
- MIC value DH5α (E. coli strain DH5α): no measurable MIC values
- % hydrolysis in CFT073 + pSU18 + CTX-M-1 (CFT073 + pSU18 + CTX-M-1): 0%

SMILES: CC(=O)OCC1=C(C(=O)O)N2C(=O)[C@@H](NC(=O)C3CCCCC3)[C@H]2SC1 [compound 25, (6R,7R)-3-(Acetoxymethyl)-7-(cyclohexanecarboxamido)-8-oxo-5-thia-1-azabicyclo[4.2.0]oct-2-ene-2-carboxylic Acid]
- % hydrolysis in CFT073 + pSU18 + CTX-M-1 (CFT073 + pSU18 + CTX-M-1): 0%

SMILES: CCCCCC(=O)N[C@@H]1C(=O)N2C(C(=O)O)=C(COC(C)=O)CS[C@H]12 [compound 28, (6R,7R)-3-(Acetoxymethyl)-7-hexanamido-8-oxo-5-thia-1-azabicyclo[4.2.0]oct-2-ene-2-carboxylic Acid]
- MIC (CFT073 + pSU18 (pEMP)): 100 µM
